The results in this text go back to patent publication EP0330874A2, “Antibacterial and antitumor agents LL-E33288 epsilon-I and LL-E33288-epsilonBr, with processes and intermediates for producing said agents” (AMERICAN CYANAMID COMPANY, priority 1988, dated 1989).

For the test, the system named is lymphocytic leukemia P388. In words: Lymphocytic Leukemia P388 Test. It is filed as in vivo, BDFl mice. To be noted: for Median Survival: mice, 30 days observation; for T/C x 100: ratio of survival time treated/control, 125 or over = significant. The source says: Certain in vivo testing systems and protocols have been developed by the National Cancer Institute for testing compounds to determine their suitability as antineoplastic agents. These have been reported in "Cancer Chemotherapy Reports", Part III, Volume 3, No. 2 (1972), Geran, et al. These protocols have established standardized screening tests which are generally followed in the field of testing for antitumor agents. Of these systems, lymphocytic leukemia P388 is particularly significant to the present invention. This neoplasm is utilized for testing as transplantable tumors in mice. Significant antitumor activity shown in this protocol by a percentage increase of mean survival times of the treated(T) animals over the control(C) animals is indicative of similar results in human leukemias and solid tumors.
The animals used were BDFl mice, all of one sex, weighing a minimum of 17 g and all within a 3 g weight range. There were 5 or 6 mice per test group. The tumor transplant was by intraperitoneal injection of 0.5 ml of dilute ascitic fluid containing 10⁶ cells of lymphocytic leukemia P388. The test compounds were administered intraperitoneally at a volume of 0.5 ml in 0.2% Klucel in normal saline on days 1, 5 and 9 (relative to tumor inoculation) at the indicated doses. The mice were weighed and survivors recorded on a regular basis for 30 days. The median survival time and the ratio of survival time for treated(T)/control(C) animals were calculated. The positive control compound for LL-E33288ε-I was 1,4-dihydroxy-5,8-bis[[2-(2-hydroxyethylamino)ethyl]amino]anthraquinone, dihydrochloride (U. S. Patent 4,197,249). The positive control compound for dethiomethylγ₁-I was 1,4-bis[2-(2-hydroxyethylamino)ethylamino]-5,8-dihydroxyanthroquinone dihydrochloride, Lederle Laboratories, Pearl River, New York ("Novantrone"). The controls were given as an intraperitoneal injections in 0.5 ml of 0.2% Klucel on days 1, 5 and 9 at the indicated doses.
If T/C X 100 (%) is 125 or over, the tested compound is considered to have significant anti-tumor activity.

[1] abbreviates: Dose 0.4 mg/kg intraperitoneally on days 1, 5 and 9.
Setting [2] is: Dose 0.8 mg/kg intraperitoneally on days 1, 5 and 9.
Where [3] appears, read: Dose 1.6 mg/kg intraperitoneally on days 1, 5 and 9.

For `Cl.Cl.O=C1c2c(O)ccc(O)c2C(=O)c2c(NCCNCCO)ccc(NCCNCCO)c21` [Positive Control, 1,4-dihydroxy-5,8-bis[[2-(2-hydroxyethylamino)ethyl]amino]anthraquinone, dihydrochloride], the “Median Survival” value under setting [1] was 21.5 days, the “Median Survival” value under setting [2] is more than 30 days and the “Median Survival” value under setting [3] stood at 27 days. The “T/C x 100” value under setting [1] was 215%, the “T/C x 100” value under setting [2] is more than 300% and the “T/C x 100” value under setting [3] is 270%.
